| Compound | melting point [°C] |
| --- | --- |
| NNC(=O)C(F)(F)Oc1ccccc1 | 76 to 78 |
| O=C(O)C1CC1c1ccc2c(c1)OCCO2 (stereo unspecified) | 160 to 162 |
| NNC(=O)C1CCC1 | 91 to 93 |
| O=C(O)c1cn(-c2ccccc2)nc1-c1ccc(-c2ccccc2)cc1 | 255 to 257 |
| NC1(c2ccc(Br)cc2)CCOCC1 | 85 to 87 |
| NC(Cc1ccc(O)cc1)c1nc2ccccc2[nH]1 (stereo unspecified) | 193 to 195 |
| CC(=CC(=O)O)c1cccc(C(F)(F)F)c1 | 135 to 137 |
| CS(=O)(=O)c1cc(S(=O)(=O)Cl)ccc1F | 112 to 114 |
| O=C1C(Br)CCN1c1ccc(Cl)c(F)c1 (stereo unspecified) | 94 to 96 |
| COc1cc(N)ccc1S(=O)(=O)Nc1ccc(F)c(Cl)c1 | 165 to 167 |
| O=C(O)c1ncoc1-c1cccs1 | 200 to 202 |
| O=C(O)c1occc1CSc1ccccc1 | 114 to 116 |
| CC1(c2ccc(Br)cc2)NC(=O)NC1=O (stereo unspecified) | 262 to 264 |
| O=C(O)C1CSC(c2ccc(Cl)s2)N1 (stereo unspecified) | 149 to 151 |
| Nc1cc(Cl)c([N+](=O)[O-])cc1OCc1ccccc1 | 135 to 137 |
| O=C(O)c1cc(F)c(F)cc1C(=O)O | 158 to 160 |
| NC(=O)C1(Br)CCC1 | 150 to 152 |
| CS(=O)(=O)Cc1noc(CCl)n1 | 73 to 75 |
| Cc1ccc(NC(=O)c2c(F)cccc2Cl)c(C(=O)O)c1 | 249 to 251 |
| CCOC=C1C(=O)N(c2ccc(Cl)cn2)C(=O)c2ccccc21 | 200 to 202 |
| O=Cc1cc(Cl)ccc1OCc1cccnc1 | 79 to 81 |
| O=C(O)CC12CC3CC(C1)CC(C(F)(F)F)(C3)C2 | 121 to 123 |
| O=C(CCl)Nc1ccc(Cl)cn1 | 142 to 144 |

| Compound | melting point [°C] |
| --- | --- |
| O=C1NC(=O)C2(CCNC2)N1 (stereo unspecified) | 201 to 203 |
| O=C(O)c1cc(C=Cc2ccncc2)nc2ccc(Br)cc12 | 309 to 311 |
| NC(=O)NN=Cc1ccccc1O | 232 to 234 |
| CC(C)(C)OC(=O)N1CCCC(n2cc(C(=O)O)cn2)C1 (stereo unspecified) | 166 to 168 |
| COc1ccccc1C(N)(C(=O)O)C(F)(F)F (stereo unspecified) | 97 to 99 |
| NC(=NO)c1ccc(Oc2ccccc2)nc1 | 159 to 161 |
| O=C(O)c1cccc(NS(=O)(=O)c2ccc(Cl)c(Cl)c2)c1 | 254 to 256 |
| O=C(c1ccc2c(c1)CCO2)c1cc(Cl)ccc1Cl | 81 to 83 |
| CC1(C(=O)O)CCOCC1 | 62 to 64 |
| NNC(=O)CC1CCCCC1 | 119 to 121 |
| Cc1[nH]c(C(=O)O)c(C)c1C(=O)OC(C)C | 183 to 185 |
| CC(C)(O[Si](C)(C)C)C(N)=O | 29 to 31 |
| CC(C)CNC(N)=O | 134 to 138 |
| O=C1NCCc2ccc(S(=O)(=O)Cl)cc21 | 188 to 190 |
| NC(=O)N1CCOCC1 | 106 to 108 |
| O=S(=O)(Cl)c1cc2c(cc1Cl)OCCO2 | 139 to 141 |
| OC(c1c(Cl)cccc1Cl)C1CCOCC1 (stereo unspecified) | 106 to 108 |
| O=Cc1c(-c2ccccc2)nc2sccn12 | 128 to 130 |
| NNc1cccc(F)c1F | 61 to 63 |
| O=C1OCC=C1Br | 53 to 55 |
| CCOc1cc(/C=C(\C(=O)O)c2ccccc2)ccc1O | 186 to 188 |
| O=C(O)c1cc(F)c(F)cc1Br | 118 to 122 |
| O=c1[nH]c(CCl)nc2sc(-c3ccccc3)cc12 | 286 to 288 |

| Compound | melting point [°C] |
| --- | --- |
| Cc1cccc(S(=O)(=O)Cl)c1C#N | 74 to 76 |
| COC(=O)CC(NC(=S)NC12CC3CC(CC(C3)C1)C2)C(=O)OC (stereo unspecified) | 117 to 119 |
| O=Cc1cccc(OC(F)(F)C(=O)O)c1 | 64 to 66 |
| O=C(O)C1CCCN(c2nc3ccccc3s2)C1 (stereo unspecified) | 166 to 168 |
| COc1cc2cc(C(=O)O)[nH]c2cc1OC | 199 to 201 |
| Fc1cc2cccnc2cc1F | 109 to 111 |
| O=Cc1sc(N2CCCC2)nc1Cl | 119 to 121 |
| CC(NC(=O)CCl)c1ccco1 (stereo unspecified) | 63 to 65 |
| Oc1cccc2ccc(N3CCCC3)nc12 | 85 to 87 |
| Cc1ccccc1NC(=O)C1CCc2ccccc2N1 (stereo unspecified) | 115 to 117 |
| Nc1ccccc1Cc1nc(-c2ccsc2)no1 | 118 to 120 |
| N#Cc1cc2c([nH]c1=O)CCC(c1ccccc1)C2 (stereo unspecified) | 279 to 281 |
| O=C(O)c1cc2ccc(SC(F)(F)F)cc2[nH]1 | 185 to 187 |
| Clc1ccc2c(n1)NCC2 | 141 to 143 |
| O=C(CCl)N1CC=C(c2ccccc2)CC1 | 86 to 88 |
| CC(Oc1ccc(Cl)cc1)C(=O)O (stereo unspecified) | 111 to 113 |
| O=C(NC(C(=O)O)c1ccccc1)c1cccs1 (stereo unspecified) | 185 to 187 |
| COc1cc(C(=O)O)ccc1OCc1ccc(Br)cc1 | 224 to 226 |
| NC(=O)NC(CC(=O)O)c1ccccc1Cl (stereo unspecified) | 163 to 165 |
| CN(C)S(=O)(=O)c1ccc(Cl)nc1 | 117 to 119 |
| CC(C)COC(C)C(N)=NO (stereo unspecified) | 63 to 65 |

More lines, now with the values ahead:

| melting point [°C] | Compound |
| --- | --- |
| 182 to 184 | O=C(O)Cc1csc(NC(=O)OCC(F)(F)F)n1 |
| 130 to 132 | Nc1cccc(I)c1C(=O)O |
| 66 to 68 | COc1ccc(Cl)cc1NC(=O)CCN |
| 46 to 48 | Cc1ncc2ccccn12 |
| 273 to 275 | NC(=O)COc1ccc(C(=O)O)cc1 |
| 48 to 52 | Cc1cc(N)n(CCO)n1 |
| 159 to 161 | O=C(O)c1cc(F)cc2cccnc12 |
| 169 to 171 | O=C(O)C(=O)Cc1ccc(Cl)c(Cl)c1 |
| 116 to 118 | CC(=O)c1c(Cl)nc2ccccn12 |
| 84 to 86 | CNC(=O)Cc1ccc(N)cc1 |
| 223 to 225 | CC(=O)NC1=NN(C(C)=O)C(C)(c2ccccc2)S1 (stereo unspecified) |
| 59 to 61 | Cc1cc(-n2nccc2N)ncn1 |
| 153 to 155 | CCC1(C)NC(=O)N(N)C1=O (stereo unspecified) |
| 92 to 94 | Cc1noc(C)c1CSCC(=O)O |
| 146 to 148 | Nc1cc(-c2cccc(Cl)c2)nn1CCO |
| 115 to 117 | O=C(O)CCCCc1cccc(O)c1 |
| 142 to 144 | O=C(O)CCNC(=O)c1ccc(Br)cc1 |
| 123 to 125 | Nc1cnc(Cc2ccc(F)cc2)nc1 |
| 99 to 101 | Nc1ccc(CN2CCOC2=O)cc1 |
| 111 to 113 | O=[N+]([O-])c1ccc(O)c(Br)c1 |
| 250 to 252 | Nc1nnc(-c2ccco2)s1 |
| 152 to 154 | CCOC(=O)c1cnc2c(OC)cc(Cl)c(OC)c2c1Cl |
| 144 to 146 | Nc1cccc(CS(N)(=O)=O)c1 |
| 171 to 173 | CCOC(=O)c1sc(O)nc1C |
| 75 to 77 | CC(N)c1ccc(OCC(=O)NC2CC2)cc1 (stereo unspecified) |
| 217 to 219 | Cc1nc([N+](=O)[O-])cn1CCC(=O)O |
| 170 to 172 | CNS(=O)(=O)c1ccc(C)c(C(=O)O)c1 |

| melting point [°C] | Compound |
| --- | --- |
| 44 to 46 | CSc1cccc(N)c1C |
| 119 to 121 | CCCn1ccnc1S |
| 71 to 73 | Cc1ccc(-c2nc(CCl)cs2)o1 |
| 118 to 120 | Nc1cc(-c2ccccc2F)no1 |
| 119 to 121 | CCOC(=O)COc1cccc(C(=O)O)c1 |
| 170 to 172 | Cc1c(C=O)c2ccccn2c1C#N |
| 263 to 265 | Cc1nc(-c2cccnc2)[nH]c(=O)c1CC(=O)O |
| 130 to 132 | COc1cccc(-n2c(C)nnc2SCC(=O)O)c1 |
| 233 to 235 | Cc1cccc2c(=O)[nH]c(CC#N)nc12 |
| 156 to 158 | COc1cccc(-c2nnc(N)s2)c1 |
| 122 to 124 | O=C(O)C1CCN(c2ccc3c(c2)OCCO3)C1=O (stereo unspecified) |
| 243 to 245 | CN(C)S(=O)(=O)c1ccc(-c2csc(N)n2)cc1 |
| 204 to 206 | CC(SCc1nc2ccccc2c(=O)[nH]1)C(=O)O (stereo unspecified) |
| 114 to 116 | Cc1nc(Cl)c2cc(-c3ccccc3)sc2n1 |
| 93 to 95 | Cc1ccc(C)n1-c1ccc(N)cc1 |
| 122 to 124 | Nc1cc(-c2ccc(F)cc2F)on1 |
| 120 to 123 | OCCc1ccc(O)c(-n2nc3ccccc3n2)c1 |
| 133 to 137 | CCOc1ccc(N2CC(C(=O)O)CC2=O)cc1 (stereo unspecified) |
| 101 to 103 | O=S(=O)(Cl)c1c(Cl)nc2ccccn12 |
| 92 to 94 | CCN1CC(C(=O)O)CC1=O (stereo unspecified) |
| 186 to 188 | Cc1cc(N)ncn1 |
| 232 to 234 | Cc1c[nH]c(=O)n1-c1cccc(N)c1 |
| 169 to 171 | Nc1cccc2ccncc12 |
| 49 to 51 | COC(=O)C(Cl)c1cccc(C#N)c1 (stereo unspecified) |
| 110 to 112 | COc1ccc(CC(=O)O)cc1F |
| 347 to 349 | Cc1nn(-c2ccc(F)cc2)c2ncc(C(=O)O)cc12 |
| 125 to 133 | CCc1nnsc1C(=O)O |

| melting point [°C] | Compound |
| --- | --- |
| 152 to 154 | CNC(=O)c1ccc(C=O)cc1 |
| 43 to 45 | Nc1cc(CCCc2cccs2)no1 |
| 128 to 130 | COC(=O)c1[nH]c(C)cc1N |
| 121 to 123 | Cc1ccc2nc3ccccc3c(Cl)c2c1 |
| 114 to 116 | Cc1ccsc1C(=O)CC#N |
| 63 to 65 | COc1ccc(CCCC(=O)O)cc1F |
| 121 to 123 | Cc1c(C(=O)O)cc(F)cc1S(=O)(=O)Cl |
| 146 to 148 | Nc1ncn(-c2ccccc2)n1 |
| 269 to 271 | Cn1c(CCl)nc2c1c(=O)[nH]c(=O)n2C |
| 117 to 119 | COC(=O)c1ccc(CN2C(=O)CSC2=O)cc1 |
| 129 to 131 | Nc1cccc(C(=O)N2CCCCC2CCO)c1 (stereo unspecified) |
| 194 to 196 | Cc1cc2n(n1)CC(C(F)(F)F)CN2 (stereo unspecified) |
| 168 to 170 | Cc1ccc(C(=O)O)c(C)n1 |
| 36 to 38 | COC(=O)c1c(C)nn(C)c1Cl |
| 141 to 143 | COc1ccc(-c2noc(CCC(=O)O)n2)cc1 |
| 97 to 99 | O=C(O)Cc1ccn(-c2ccc(F)cc2)n1 |
| 249 to 251 | Nc1ccc2c(Br)ccc(Cl)c2n1 |
| 193 to 195 | Nc1ccc2c(C(=O)O)c[nH]c2c1 |
| 83 to 85 | O=C(O)CCCn1nnc(-c2ccccc2)n1 |
| 229 to 231 | CCCNC(=O)c1cccc(C(=O)O)c1 |
| 89 to 91 | CCCCOc1c(Cl)cc(C(=O)O)cc1OCC |
| 146 to 148 | Nc1nc(Cc2ccc(Br)cc2)cs1 |
| 122 to 124 | Cc1n[nH]c(C)c1CCO |
| 143 to 145 | COC(=O)Cc1cc(O)n[nH]1 |
| 75 to 77 | Nc1ccccc1CN1CCc2ccccc21 |

Source: a melting point compilation (Tetko et al.)
